Test results as given in ChEMBL document CHEMBL5465560, “Selectivity Literature for EUbOPEN Chemogenomic Library” (2024).

Key:
[1] = target: T1, Histone-lysine N-methyltransferase NSD3 (Homo sapiens) (UniProt Q9BZ95); assay: Selectivity interaction (PWWP, WD40, and Tudor domain panel (DSLS measurements, literature)) EUB0000270b NSD3
T1 sequence (whole entry): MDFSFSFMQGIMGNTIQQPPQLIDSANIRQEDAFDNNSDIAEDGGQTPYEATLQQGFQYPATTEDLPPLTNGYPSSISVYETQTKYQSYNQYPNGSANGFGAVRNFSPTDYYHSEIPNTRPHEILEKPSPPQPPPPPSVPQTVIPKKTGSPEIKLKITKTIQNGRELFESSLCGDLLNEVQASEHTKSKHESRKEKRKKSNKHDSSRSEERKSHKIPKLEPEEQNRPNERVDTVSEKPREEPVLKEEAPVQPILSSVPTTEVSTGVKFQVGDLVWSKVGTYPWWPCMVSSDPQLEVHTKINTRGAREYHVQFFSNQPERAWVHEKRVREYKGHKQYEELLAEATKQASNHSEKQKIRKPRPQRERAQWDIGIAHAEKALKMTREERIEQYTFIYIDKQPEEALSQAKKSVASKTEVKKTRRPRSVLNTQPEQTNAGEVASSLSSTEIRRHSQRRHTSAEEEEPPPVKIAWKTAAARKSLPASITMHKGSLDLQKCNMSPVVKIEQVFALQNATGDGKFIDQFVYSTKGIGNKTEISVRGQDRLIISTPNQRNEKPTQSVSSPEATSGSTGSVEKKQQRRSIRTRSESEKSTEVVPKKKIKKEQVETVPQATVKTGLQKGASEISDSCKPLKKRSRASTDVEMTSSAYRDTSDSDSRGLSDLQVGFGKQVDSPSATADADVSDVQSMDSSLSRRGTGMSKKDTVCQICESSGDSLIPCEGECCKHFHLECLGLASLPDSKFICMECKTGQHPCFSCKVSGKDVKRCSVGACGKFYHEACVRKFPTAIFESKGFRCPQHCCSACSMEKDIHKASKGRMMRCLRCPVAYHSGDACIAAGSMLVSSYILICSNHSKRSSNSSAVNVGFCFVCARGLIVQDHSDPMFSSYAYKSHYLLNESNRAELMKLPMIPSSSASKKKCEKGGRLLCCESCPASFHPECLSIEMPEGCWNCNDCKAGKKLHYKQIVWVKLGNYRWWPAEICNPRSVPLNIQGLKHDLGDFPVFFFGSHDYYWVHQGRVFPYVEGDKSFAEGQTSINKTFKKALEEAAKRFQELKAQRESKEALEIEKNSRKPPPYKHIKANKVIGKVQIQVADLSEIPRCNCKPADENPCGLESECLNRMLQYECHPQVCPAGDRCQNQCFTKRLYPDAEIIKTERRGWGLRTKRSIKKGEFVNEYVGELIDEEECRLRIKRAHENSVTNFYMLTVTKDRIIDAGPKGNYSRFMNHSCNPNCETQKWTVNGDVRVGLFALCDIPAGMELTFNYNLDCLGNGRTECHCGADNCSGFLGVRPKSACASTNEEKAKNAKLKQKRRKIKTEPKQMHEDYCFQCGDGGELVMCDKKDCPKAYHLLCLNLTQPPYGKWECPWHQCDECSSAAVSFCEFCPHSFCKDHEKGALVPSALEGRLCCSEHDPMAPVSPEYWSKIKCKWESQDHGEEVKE

[2] = target: Acetylcholine receptor subunit alpha (Homo sapiens, UniProt P02708); assay: Selectivity interaction (Panel of kinases, GPCRs, ion channels and transporters (enzymatic assay)) EUB0000223bCl CHRNA1
Chain of Acetylcholine receptor subunit alpha (P02708 whole entry): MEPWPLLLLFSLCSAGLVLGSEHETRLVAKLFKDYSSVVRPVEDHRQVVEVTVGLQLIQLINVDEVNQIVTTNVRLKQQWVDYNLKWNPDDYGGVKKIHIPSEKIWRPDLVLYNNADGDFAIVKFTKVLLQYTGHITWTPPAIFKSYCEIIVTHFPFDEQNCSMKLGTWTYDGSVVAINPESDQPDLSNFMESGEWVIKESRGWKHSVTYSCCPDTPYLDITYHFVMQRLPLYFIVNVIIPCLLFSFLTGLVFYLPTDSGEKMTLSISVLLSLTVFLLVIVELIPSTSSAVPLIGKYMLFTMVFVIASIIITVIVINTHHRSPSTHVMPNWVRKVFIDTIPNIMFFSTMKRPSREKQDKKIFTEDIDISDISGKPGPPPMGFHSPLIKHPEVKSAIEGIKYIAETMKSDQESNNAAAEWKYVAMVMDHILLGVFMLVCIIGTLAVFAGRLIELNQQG

[3] = target: Cell division control protein 42 homolog (Homo sapiens) (UniProt P60953); assay: Selectivity interaction (SelectScreen profiling (Invitrogen)) EUB0000607a CDC42; conditions: at 2 µM
Chain of Cell division control protein 42 homolog (Homo sapiens) (P60953 whole entry, looked up): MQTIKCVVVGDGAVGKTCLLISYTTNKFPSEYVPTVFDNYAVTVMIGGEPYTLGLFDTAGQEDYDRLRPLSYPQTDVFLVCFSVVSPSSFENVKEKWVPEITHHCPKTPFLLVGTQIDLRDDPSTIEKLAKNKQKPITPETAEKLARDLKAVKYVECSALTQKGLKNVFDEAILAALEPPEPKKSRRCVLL

[4] = target: Serine/threonine-protein kinase Nek4 (Homo sapiens) (UniProt P51957); assay: Selectivity interaction (KinomeScan (DiscoverX)) EUB0000618a NEK4; conditions: at 10 µM
Chain of Serine/threonine-protein kinase Nek4 (Homo sapiens) (P51957 whole entry, looked up): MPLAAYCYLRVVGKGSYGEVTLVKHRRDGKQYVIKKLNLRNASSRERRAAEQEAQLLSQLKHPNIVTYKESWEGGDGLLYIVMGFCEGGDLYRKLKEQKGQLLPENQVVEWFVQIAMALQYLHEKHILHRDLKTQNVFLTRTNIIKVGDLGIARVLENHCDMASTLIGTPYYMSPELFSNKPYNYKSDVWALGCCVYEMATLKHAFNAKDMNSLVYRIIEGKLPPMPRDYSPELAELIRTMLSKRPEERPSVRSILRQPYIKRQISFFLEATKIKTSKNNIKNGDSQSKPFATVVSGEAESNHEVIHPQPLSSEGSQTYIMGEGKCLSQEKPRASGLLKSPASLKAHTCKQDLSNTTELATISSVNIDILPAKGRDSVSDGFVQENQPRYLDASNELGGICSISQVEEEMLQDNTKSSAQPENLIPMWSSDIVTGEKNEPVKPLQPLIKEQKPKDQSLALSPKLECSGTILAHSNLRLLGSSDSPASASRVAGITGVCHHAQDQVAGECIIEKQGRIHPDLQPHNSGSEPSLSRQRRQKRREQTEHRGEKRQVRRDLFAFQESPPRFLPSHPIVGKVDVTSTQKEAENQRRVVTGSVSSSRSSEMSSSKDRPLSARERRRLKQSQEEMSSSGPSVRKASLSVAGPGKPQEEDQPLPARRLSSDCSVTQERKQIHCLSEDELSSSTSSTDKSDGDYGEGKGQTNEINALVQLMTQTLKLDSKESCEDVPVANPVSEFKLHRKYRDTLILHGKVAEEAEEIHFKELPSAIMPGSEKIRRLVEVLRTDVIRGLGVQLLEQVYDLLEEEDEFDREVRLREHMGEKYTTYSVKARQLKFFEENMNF

Structure (SMILES): Cc1cc(CN)cc(C)c1-c1ncn(C)c1-c1cncn1C
- dTagg [1]: 0.7 K

Structure (SMILES): COc1cc(C(=O)N2CC[C@@H](O)[C@@H](N)C2)cc2nc(-c3cc4ccccc4n3CC3CC3)n(C)c12
- pXC50 [2]: 5.8 M

Structure (SMILES): CNC(=O)Nc1ccc(-c2nc(N3CC4CCC(C3)O4)c3cnn(C4CCC5(CC4)OCCO5)c3n2)cc1
- % of inhibition [3]: 7%

Structure (SMILES): O[C@H]1CC[C@H](Nc2ncc3nc(Nc4c(F)cc(F)cc4F)n([C@H]4CCOC4)c3n2)CC1
- % of control [4]: 100%
